Experimental data taken from patent US20250161329A1, “USE OF UV FILTERS FOR THE TREATMENT OF ACNE” (DSM IP ASSETS B.V., priority 2022, published 2025).

Columns and labels:
[1] = test system: Staphylococcus epidermidis ATCC 12228; experiment: In vitro UV model, survival of S. epidermidis after UV irradiation (96-well liquid model, MPN method); type: cell-based
Procedure: Accordingly, the inventors developed a targeted in vitro liquid model in 96-well microplate format to screen for UV protective actives (“UV filters”) on bacterial survival. The effects of selected UV irradiation conditions tested on microbial population of C. acnes and the commensal reference strain of Staphylococcus epidermidis in the presence of various UV filters and combinations thereof were evaluated with the evolution of the residual microbial population after 4 h. The inhibition of bacterial growth, as consequence of UV irradiation, was compared to that of the same strain without UV irradiation and was expressed in percentage of survival (%). […] The use level of the single UV filter and combinations in the test formulations was calculated to obtain a predicted in vitro SPF value of 5.75+/−0.15 and 23.45+/−0.65, respectively (Table 2). […] The relative percentage of protection (%) was calculated from the difference between the survival percentages of samples and vehicle control (with UV irradiation) and divided to the survival percentage of the vehicle control. Consequently, the survival of each microbial population and the relative protection by the UV filter(s) were calculated and are summarized in the Table 2.

[2] = test system: Cutibacterium acnes ATCC 11827; experiment: In vitro UV model, survival of C. acnes after UV irradiation (96-well liquid model, plate counting); type: cell-based; settings: for C. acnes relative protection by the UV filter(s) vs. vehicle control / C. acnes survival: UV 3 SED (UVA+UVB 30 mJ/cm^2), after 4 h, sample at 20% v/v; for C. acnes relative protection by the UV filter(s) vs. vehicle control: (sample survival - vehicle survival)/vehicle survival; for C. acnes survival: compared to untreated and non-irradiated control
Procedure: Accordingly, the inventors developed a targeted in vitro liquid model in 96-well microplate format to screen for UV protective actives (“UV filters”) on bacterial survival. The effects of selected UV irradiation conditions tested on microbial population of C. acnes and the commensal reference strain of Staphylococcus epidermidis in the presence of various UV filters and combinations thereof were evaluated with the evolution of the residual microbial population after 4 h. The inhibition of bacterial growth, as consequence of UV irradiation, was compared to that of the same strain without UV irradiation and was expressed in percentage of survival (%). The microbial strains used in this study are listed below and their cultures are reconstituted according to the direction of the supplier collection center of the reference strain, (ATCC American Type Culture Collection, USA): • Cutibacterium acnes ATCC 11827 • Staphylococcus epidermidis ATCC 12228 The 96-well plate was filled with the recommended culture media (140 μL) and a calibrated inoculum (20 μL) of each bacterial strain was added to reach […] colony forming units per milliliter (cfu/mL) final concentration. After contamination, the sample was added (40 μL; 20% v/v) in triplicate and was thoroughly mixed to ensure a homogeneous distribution. Then, the plate was submitted to UV stress through an UV irradiator system (BioSun, Vilber Lourmat, France) according to the UV doses presented Table 1 below. The specific UV dose selected was between 10 and 49% survival of the microbial population. The counting of C. acnes microbial population was performed by plating aliquots on the agar plates and was done in triplicate. The enumeration of grown C. acnes colonies was used to determine the decrease rate of microbial population. Controls performed during this experiment were the culture medium with bacteria incubated without UV stress. The microbial population counts were expressed in cfu/mL and were the average of experiment done in triplicate. The use level of the single UV filter and combinations in the test formulations was calculated to obtain a predicted in vitro SPF value of 5.75+/−0.15 and 23.45+/−0.65, respectively (Table 2). The UV filters were mixed in the two oils, Tegosoft XC (55%) and Miglyol 829 Eco (ad100%) and the emulsifier Tween 80 (5%). The effect of selected UV irradiation conditions on the survival of microbial population of C. acnes and S. epidermidis in the presence of the tested samples 1-10 at 20% v/v, was compared with the corresponding strain in the absence of samples 1-10 and without exposure to UV irradiation (control). The results after the 4-hour incubation were compared to the population of bacteria incubated without UV stress (determination of bacterial population survival) and were expressed in percentage of survival (%). The relative percentage of protection (%) was calculated from the difference between the survival percentages of samples and vehicle control (with UV irradiation) and divided to the survival percentage of the vehicle control. Consequently, the survival of each microbial population and the relative protection by the UV filter(s) were calculated and are summarized in the Table 2.

SMILES	effect on the commensal bacterium S. epidermidis upon UV irradiation (in words) [1]	effect on the population of C. acnes upon UV irradiation (in words) ([2]; C. acnes ATCC 11827, phylotype IA, upon UV irradiation)	C. acnes relative protection by the UV filter(s) vs. vehicle control [2]	C. acnes survival [2]
CCCCC(CC)COC(=O)C(C#N)=C(c1ccccc1)c1ccccc1 (stereo not shown) [Inv. 1, Octocrylene]	maintain or even propagating the commensal bacterium S. epidermidis	reduced the population of C. acnes	(−15) %	56%
CCCCC(CC)COC(=O)c1ccccc1O (stereo not shown) [Inv. 2, Ethylhexyl Salicylate]			(−30) %	46%
CCCCC(CC)COC(=O)c1ccc(Nc2nc(Nc3ccc(C(=O)OCC(CC)CCCC)cc3)nc(Nc3ccc(C(=O)OCC(CC)CCCC)cc3)n2)cc1 (stereo not shown) [Ref. 1, Ethylhexyl Triazone, reference compound]			(+40) %	92%
CCCCC(CC)COc1ccc(-c2nc(-c3ccc(OC)cc3)nc(-c3ccc(OCC(CC)CCCC)cc3O)n2)c(O)c1 (stereo not shown) [Ref. 2, Bis-Ethylhexyloxyphenol Methoxyphenyl Triazine, reference compound]			(+13) %	74%
